Molecular target: T1, Human pyruvate kinase R (PKR) (Homo sapiens, UniProt P30613)
T1 construct: Human pyruvate kinase R (PKR), residues 14-574; 6x-His (N, cleaved yes); 8x-Arg (N, cleaved yes); SUMO (N, cleaved yes); host or cells: E. coli
Test: Biochemical assay for activation of pyruvate kinase R (Kinase-Glo luminescence measurement of ATP generation)
Details: for AC50: PKR biochemical assay, 0.1 nM PKR, 0.3 mM ADP, 2 mM FBP, 0.1 mM PEP; for Emax: maximal activation level relative to the activation level achieved by the literature compound AG-348 @ 10 μM
Experimental: Human pyruvate kinase R (PKR), residues 14-574, and human pyruvate kinase M2, residues 1-531, were cloned into expression plasmids and obtained from ATUM Bio (Newark, Calif.). Proteins were translated as fusions with 6×-His, 8×-Arg, and SUMO at the N-terminus. A third construct of human PKR was truncated, residues 50-574, and similarly cloned for use in crystallography experiments. All proteins were cloned, expressed in E. coli, and purified using similar protocols. Cells were grown at 30° C. in Luria-Bertani broth supplemented with 0.4% glucose to OD600=0.8 and induced with 0.4 mM IPTG at 16° C. for 18 hours. Cells were harvested by centrifugation, resuspended in 50 mM potassium phosphate pH 8.0, 500 mM NaCl, 25 mM imidazole pH 8.0, and 3 mM (3-mercaptoethanol. Cells were lysed using a LM20 microfluidizer from Microfluidics (Westwood, Mass.). The crude lysate was immediately supplemented with 0.2 mM phenylmethylsulfonyl fluoride (PMSF) and centrifuged at 20,000 g for 20 minutes. The soluble fraction was subsequently incubated with 2 mL Ni-NTA (GE Healthcare) per 1,000 ODs for 1 hour at 4° C. Following incubation with the Ni-NTA resin, lysate was removed by pelleting resin at 2,500 g for 3 minutes and washed 3 times with 9 bed volumes of 50 mM potassium phosphate pH 8.0, 500 mM NaCl, 25 mM imidazole, and 3 mM 3-mercaptoethanol. Following the batch wash Ni-NTA resin was loaded onto a gravity column and His-tagged protein was eluted with 6 bed volumes of 10 mM Tris/HCl pH 8.0, 200 mM NaCl, 500 mM imidazole, and 3 mM (3-mercaptoethanol. Eluted protein was dialyzed overnight against 10 mM Tris/HCl pH 8.0, 200 mM NaCl, and 1 mM DTT and the 6×-His-8×-Arg-SUMO-tag was cleaved using a 20:1 molar ratio of protein:3C protease. The protein was purified by anion exchange chromatography on a HiTrapQ or MonoQ 10/100 GL column (GE Healthcare) via a linear NaCl gradient and twice by size exclusion chromatography using a Superdex S200 26/60 column (GE Healthcare) run in 10 mM Tris/HCl pH 8.0, 200 mM NaCl, 10 mM MgCl2, 1 mM DTT. Proteins were concentrated to −12 mg/mL for crystallization and flash frozen for storage.
Biochemical Assay for Activation of Pyruvate Kinase R
Activation of pyruvate kinase R (PKR) and pyruvate kinase M2 (PKM2) were measured using a luminescence based measurement of ATP generation and the Kinase-Glo luminescent kinase reagent kit.

T1 sequence (P30613 14-574): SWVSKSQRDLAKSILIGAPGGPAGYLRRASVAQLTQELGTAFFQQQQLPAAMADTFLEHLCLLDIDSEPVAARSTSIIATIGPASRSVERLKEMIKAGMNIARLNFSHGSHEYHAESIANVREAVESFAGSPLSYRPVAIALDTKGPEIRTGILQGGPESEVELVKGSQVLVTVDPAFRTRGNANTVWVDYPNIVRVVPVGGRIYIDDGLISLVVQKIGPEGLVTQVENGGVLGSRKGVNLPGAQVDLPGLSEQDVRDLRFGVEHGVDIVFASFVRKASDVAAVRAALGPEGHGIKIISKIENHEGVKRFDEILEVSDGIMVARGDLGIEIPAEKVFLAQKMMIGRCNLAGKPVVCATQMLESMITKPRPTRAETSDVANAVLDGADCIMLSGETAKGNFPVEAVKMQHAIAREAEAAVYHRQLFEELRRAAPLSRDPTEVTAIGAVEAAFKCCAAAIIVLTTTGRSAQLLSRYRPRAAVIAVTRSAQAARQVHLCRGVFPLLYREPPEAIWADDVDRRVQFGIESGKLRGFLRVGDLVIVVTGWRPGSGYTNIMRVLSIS

Row | Compound | AC50 | Emax
1 | O=C(NCc1nnnn1-c1ccc(F)c(Cl)c1)NCc1nnnn1-c1ccc(F)c(Cl)c1 [Compound 70, 1,3-bis({[1-(3-chloro-4-fluorophenyl)-1H-1,2,3,4-tetrazol-5-yl]methyl})urea] | 110 nM | 64%
2 | O=C(NCc1nnnn1-c1ccc(Cl)c(F)c1)NCc1nnnn1-c1ccc(Cl)c(F)c1 [Compound 63, 1,3-bis({[1-(4-chloro-3-fluorophenyl)-1H-1,2,3,4-tetrazol-5-yl]methyl})urea] | 63 nM | 99%
3 | Cc1nc(CNC(=O)NCc2ncnn2-c2ccc(C3CC3)nc2)n(-c2ccc(Cl)c(F)c2)n1 [Compound 131, 1-{[1-(4-chloro-3-fluorophenyl)-3-methyl-1H-1,2,4-triazol-5-yl]methyl}-3-{[1-(6-cyclopropylpyridin-3-yl)-1H-1,2,4-triazol-5-yl]methyl}urea] | 78 nM | 94%
4 | O=C(NCc1ncnn1-c1ccc(Cl)c(F)c1)NCc1ncnn1-c1nc2cc(Cl)ccc2s1 [Compound 35, 1-{[1-(5-chloro-1,3-benzothiazol-2-yl)-1H-1,2,4-triazol-5-yl]methyl}-3-{[1-(4-chloro-3-fluorophenyl)-1H-1,2,4-triazol-5-yl]methyl}urea] | 3200 nM | 28%
5 | Cc1nc(CNC(=O)N(C)Cc2ncnn2-c2ccc3scnc3c2)n(-c2ccc(Cl)c(F)c2)n1 [Compound 22, 1-{[1-(1,3-benzothiazol-5-yl)-1H-1,2,4-triazol-5-yl]methyl}-3-{[1-(4-chloro-3-fluorophenyl)-3-methyl-1H-1,2,4-triazol-5-yl]methyl}-1-methylurea] | 33 nM | 83%
6 | Cc1nc(CNC(=O)NCc2ncnn2-c2cnc3ccccc3c2)n(-c2ccc(Cl)c(F)c2)n1 [Compound 126, 1-{[1-(4-chloro-3-fluorophenyl)-3-methyl-1H-1,2,4-triazol-5-yl]methyl}-3-{[1-(quinolin-3-yl)-1H-1,2,4-triazol-5-yl]methyl}urea] | 67 nM | 84%
7 | Cc1nc(CNC(=O)N(C)Cc2nc(C)nn2-c2ccc(Cl)c(F)c2)n(-c2ccc(Cl)c(F)c2)n1 [Compound 78, 1,3-bis({[1-(4-chloro-3-fluorophenyl)-3-methyl-1H-1,2,4-triazol-5-yl]methyl})-1-methylurea] | 110 nM | 88%
8 | CCN(Cc1ncnn1-c1ccc(OC)nc1)C(=O)NCc1nc(C)nn1-c1ccc(Cl)c(F)c1 [Compound 124, 3-{[1-(4-chloro-3-fluorophenyl)-3-methyl-1H-1,2,4-triazol-5-yl]methyl}-1-ethyl-1-{[1-(6-methoxypyridin-3-yl)-1H-1,2,4-triazol-5-yl]methyl}urea] | 270 nM | 79%
9 | Cc1nc(CNC(=O)NCc2ncnn2-c2ccc(Cl)c(F)c2)n(-c2cnc3ccccc3c2)n1 [Compound 144, 1-{[1-(4-chloro-3-fluorophenyl)-1H-1,2,4-triazol-5-yl]methyl}-3-{[3-methyl-1-(quinolin-3-yl)-1H-1,2,4-triazol-5-yl]methyl}urea] | 27 nM | 94%
10 | Cc1nc(CNC(=O)NCc2nc(C3CC3)nn2-c2ccc3cccnc3c2)n(-c2ccc(Cl)c(F)c2)n1 [Compound 55, 3-{[1-(4-chloro-3-fluorophenyl)-3-methyl-1H-1,2,4-triazol-5-yl]methyl}-1-{[3-cyclopropyl-1-(quinolin-7-yl)-1H-1,2,4-triazol-5-yl]methyl}urea] | 79 nM | 90%
11 | Cc1nc(CNC(=O)NCc2ncnn2CC2(O)CCCCC2)n(-c2ccc(Cl)c(F)c2)n1 [Compound 23, 3-{[1-(4-chloro-3-fluorophenyl)-3-methyl-1H-1,2,4-triazol-5-yl]methyl}-1-({1-[(1-hydroxycyclohexyl)methyl]-1H-1,2,4-triazol-5-yl}methyl)urea] | 230 nM | 72%
12 | Cc1nc(CNC(=O)NCc2nc(C)nn2-c2ccc3cccnc3c2)n(-c2ccc3cccnc3c2)n1 [Compound 84, 1,3-bis({[3-methyl-1-(quinolin-7-yl)-1H-1,2,4-triazol-5-yl]methyl})urea] | 520 nM | 94%
13 | Cc1nc(CNC(=O)NCc2ncnn2Cc2ccc(F)cc2)n(-c2ccc(Cl)c(F)c2)n1 [Compound 20, 3-{[1-(4-chloro-3-fluorophenyl)-3-methyl-1H-1,2,4-triazol-5-yl]methyl}-1-({1-[(4-fluorophenyl)methyl]-1H-1,2,4-triazol-5-yl}methyl)urea] | 51 nM | 97%

Now from value to compound:

Row | AC50 | Emax | Compound
14 | 24 nM | 59% | Cc1nc(CNC(=O)NCc2ncnn2-c2ccn3ccnc3c2)n(-c2ccc(Cl)c(F)c2)n1 [Compound 128, 1-{[1-(4-chloro-3-fluorophenyl)-3-methyl-1H-1,2,4-triazol-5-yl]methyl}-3-[(1-{imidazo[1,2-a]pyridin-7-yl}-1H-1,2,4-triazol-5-yl)methyl]urea]
15 | 220 nM | 88% | Cc1ccc(-n2nnnc2CNC(=O)NCc2nnnn2-c2ccc(C)c(F)c2)cc1F [Compound 58, 1,3-bis({[1-(3-fluoro-4-methylphenyl)-1H-1,2,3,4-tetrazol-5-yl]methyl})urea]
16 | 47 nM | 45% | Cc1nc(CNC(=O)NCc2ncnn2-c2ccc3ncncc3c2)n(-c2ccc(Cl)c(F)c2)n1 [Compound 127, 1-{[1-(4-chloro-3-fluorophenyl)-3-methyl-1H-1,2,4-triazol-5-yl]methyl}-3-{[1-(quinazolin-6-yl)-1H-1,2,4-triazol-5-yl]methyl}urea]
17 | 110 nM | 78% | Cc1ccc2ccc(-n3ncnc3CNC(=O)NCc3nc(C)nn3-c3ccc(Cl)c(F)c3)cc2n1 [Compound 29, 3-{[1-(4-chloro-3-fluorophenyl)-3-methyl-1H-1,2,4-triazol-5-yl]methyl}-1-{[1-(2-methylquinolin-7-yl)-1H-1,2,4-triazol-5-yl]methyl}urea]
18 | 7800 nM | 47% | CCN(Cc1ncnn1-c1ccc(Cl)c(F)c1)C(=O)NCc1ncnn1-c1ccc(O)nc1 [Compound 121, 3-{[1-(4-chloro-3-fluorophenyl)-1H-1,2,4-triazol-5-yl]methyl}-3-ethyl-1-{[1-(6-hydroxypyridin-3-yl)-1H-1,2,4-triazol-5-yl]methyl}urea]
19 | 130 nM | 95% | CCN(Cc1ncnn1-c1ccc(Cl)c(F)c1)C(=O)NCc1nnnn1-c1ccc(Cl)c(F)c1 [Compound 36, 3-{[1-(4-chloro-3-fluorophenyl)-1H-1,2,3,4-tetrazol-5-yl]methyl}-1-{[1-(4-chloro-3-fluorophenyl)-1H-1,2,4-triazol-5-yl]methyl}-1-ethylurea]
20 | 1200 nM | 80% | O=C1N(Cc2nnnn2-c2ccc(Cl)c(F)c2)CCCN1Cc1nnnn1-c1ccc(Cl)c(F)c1 [Compound 4, 1,3-bis({[1-(4-chloro-3-fluorophenyl)-1H-1,2,3,4-tetrazol-5-yl]methyl})-1,3-diazinan-2-one]
21 | 900 nM | 74% | Cc1nc(CNC(=O)NCc2ncnn2-c2cc(F)c3cncnc3c2)n(-c2ccc(Cl)c(F)c2)n1 [Compound 108, 1-{[1-(4-chloro-3-fluorophenyl)-3-methyl-1H-1,2,4-triazol-5-yl]methyl}-3-{[1-(5-fluoroquinazolin-7-yl)-1H-1,2,4-triazol-5-yl]methyl}urea]
22 | 160 nM | 86% | Cc1nc(CNC(=O)NCc2ncnn2-c2cncc(C3CC3)c2)n(-c2ccc(Cl)c(F)c2)n1 [Compound 133, 1-{[1-(4-chloro-3-fluorophenyl)-3-methyl-1H-1,2,4-triazol-5-yl]methyl}-3-{[1-(5-cyclopropylpyridin-3-yl)-1H-1,2,4-triazol-5-yl]methyl}urea]
23 | 430 nM | 72% | Cc1nc(CNC(=O)NCc2ncnn2-c2cccnc2)n(-c2ccc(Cl)c(F)c2)n1 [Compound 129, 1-{[1-(4-chloro-3-fluorophenyl)-3-methyl-1H-1,2,4-triazol-5-yl]methyl}-3-{[1-(pyridin-3-yl)-1H-1,2,4-triazol-5-yl]methyl}urea]
24 | 150 nM | 100% | Cc1nc(CNC(=O)NCc2nc(CO)nn2-c2ccc(Cl)c(F)c2)n(-c2ccc3cccnc3c2)n1 [Compound 93, 1-{[1-(4-chloro-3-fluorophenyl)-3-(hydroxymethyl)-1H-1,2,4-triazol-5-yl]methyl}-3-{[3-methyl-1-(quinolin-7-yl)-1H-1,2,4-triazol-5-yl]methyl}urea]

From patent publication US20230278984A1 (Global Blood Therapeutics, Inc., priority 2020, published 2023)
